# Data published in patent US20130143902A1, “COMPOSITIONS AND METHODS OF TREATING A PROLIFERATIVE DISEASE WITH A QUINAZOLINONE DERIVATIVE” (GILEAD CALISTOGA LLC, priority 2011, published 2013).
# Several values for one entry are separate records, joined by “and”; a condition that tells them apart may be missing. Equal entries are not always repeated.
# Assays:
# [1] = system: Akt/PKB phosphorylation in primary T-ALL tumors; assay: Akt/PKB phosphorylation in primary T-ALL tumors; type: cell-based, human; details: primary T-ALL tumors from four patients
# Method: Cell lysates (from cell lines or thymocytes) were prepared on ice in M-PER Mammalian Protein Extraction reagent (Pierce) containing a cocktail of protease and phosphatase inhibitors as described in Swat, W. et al., Essential role of PI3 Kdelta and PI3 Kgamma in thymocyte survival, Blood 107, 2415-2422 (2006). Equal amounts of total protein from lysates were separated using SDS-PAGE, transferred to PVDF membrane (Immobilon-P, Millipore). Membranes were incubated overnight incubation with appropriate primary antibodies. Bound antibodies were visualized with HRP-conjugated secondary antibodies and ECL chemistry (SuperPico West, Pierce).
# LN18 = assay: pAkt pathway inhibition, LN18; type: cell-based; details: Homo sapiens, LN-18; LN18, Glioma
# PC3 [2] = assay: Viability (AlamarBlue), PC3; type: cell-based; details: Homo sapiens, PC-3; PC3, Prostate
# Method: (§1) For primary T-ALL samples, cell viability was determined using the BD Cell Viability kit (BD Biosciences) and fluorescent counting beads as previously described in Armstrong, F. et al., NOTCH is a key regulator of human T-cell acute leukemia initiating cell activity, Blood 113, 1730-1740 (2009). Cells were plated with MS5-DL1 stroma cells. After 72 hours following treatment, cells were harvested and stained with an APC-conjugated anti-human CD45 according to the manufacturer's instructions. For solid tumor cell lines, cellular viability was determined using the AlamarBlue kit (Invitrogen). About 10,000 cells in 100 μL of media containing 10% FBS were aliquoted into individual wells of a 96-well plate and treated with vehicle (DMSO) or compound in triplicate for 24 hours. Ten μL of AlamarBlue reagent was added to each well and incubated for 4 hours at 37° C. with 5% CO2. Fluorescence was measured with an excitation wavelength at 530 to 560 nm and emission wavelength at 590 nm using Spectramax M5 plate reader (Molecular Devices, Sunnyvale, Calif.).
# Dog PK = type: in vivo; details: plasma
# Description: (§2) The pharmacokinetics of Compound A in mouse and dogs were also examined. […] The results of Tmax (time of maximum observed concentration), Cmax (maximum concentration in plasma measured), AUC (area under the curve for plasma concentration versus time), Cl (total body clearance), and Vz (volume of distribution) were summarized in Table 4. As used herein, the mark ‘-’ represents data not relevant. AUC is shown as the unit of ng*h/mL (ng=nanograms, h=hour, mL=milliliter); ng are multiplied by h, and the value is divided by the volume in mL.
# 22Rv1 [3] = assay: Viability (AlamarBlue), 22Rv1; type: cell-based; details: Homo sapiens; 22Rv1, Prostate
# Method: as §1
# T47D [4] = assay: Viability (AlamarBlue), T47D; type: cell-based; details: Homo sapiens, Breast
# Method: as §1
# [5] = In vitro metabolism in human liver microsomes; type: in vitro ADME
# 786-0 = assay: pAkt pathway inhibition, 786-0; type: cell-based; details: Homo sapiens; 786-0, Renal
# Mouse PK = type: in vivo; details: plasma, PO 20 mg/kg
# Description: as §2
# IGROV-1 [6] = assay: Viability (AlamarBlue), IGROV-1; type: cell-based; details: Homo sapiens; IGROV-1, Ovarian
# Method: as §1
# T47D [7] = assay: pAkt pathway inhibition, T47D; type: cell-based; details: Homo sapiens, Breast
# U87MG = assay: Viability (AlamarBlue), U87MG; type: cell-based; details: Homo sapiens, U-87 MG, Glioma
# Method: as §1
# UACC-62 = assay: pAkt pathway inhibition, UACC-62; type: cell-based; details: Homo sapiens; UACC-62, Melanoma
# OVCAR-3 = assay: Viability (AlamarBlue), OVCAR-3; type: cell-based; details: Homo sapiens; OVCAR-3, Ovarian
# Method: as §1
# 22Rv1 [8] = assay: pAkt pathway inhibition, 22Rv1; type: cell-based; details: Homo sapiens; 22Rv1, Prostate
# RXF-393 = assay: pAkt pathway inhibition, RXF-393; type: cell-based; details: Homo sapiens; RXF-393, Renal
# PI3K p110β = target: T1, PI3K p110β (Mus musculus, UniProt Q8BTI9); assay: Cellular p110β signaling: LPA-stimulated MEFs, pAkt Western blot; type: cell-based, murine; details: EC50 p110β, cellular assay
# T1 construct: endogenous in cells; host or cells: murine embryo fibroblasts (MEFs)
# Method: To analyze PI3K p110α and p110β signaling, murine embryo fibroblast (MEFs) were removed from FBS and starved for 2 hours followed by stimulation with 10 ng/mL of PDGF (Cell Signaling Technologies, Danvers, Mass.) or 10 μM of LPA (Echelon, Salt Lake City, Utah) for 10 minutes at 37° C., respectively. After washing once in cold phosphate-buffered saline (PBS), the cell pellet was resuspended in 1× cell lysis buffer (Cell Signaling Technologies) supplemented with mini protease inhibitor mix (Roche, Indianapolis, Ind.), phosphate inhibitor cocktail set I and II (Calbiochem, San Diego, Calif.) for 15 minutes on ice. Whole-cell lysates were obtained by centrifugation at 16,000 g for 10 minutes at 4° C., and the soluble protein was analyzed by Western blotting for Akt and pAkt levels. To analyze PI3K p110δ and p110γ signaling, basophil activation was measured in isolated PBMC or whole blood using the Flow2 CAST kit according to the manufacture's standardized methods (Buhlman Laboratories AG, Switzerland). Briefly, p110δ was activated with anti-FCεRI and p110γ was activated with fMLP (2 μM) in the absence or presence of compounds. To monitor the basophil cell population and cellular activation, anti-CD63-FITC and anti-CCR3-PE antibodies were added to each sample. Cells were fixed and analyzed on a FC500 MPL flow cytometer (Beckman Coulter, Brea, Calif.).
# KM-12 = assay: pAkt pathway inhibition, KM-12; type: cell-based; details: Homo sapiens, KM12; KM-12, Colon
# PTEN null T-ALL = assay: Diseased Lck/PTEN^fl/fl mice with PTEN null T-ALL; type: in vivo; details: 30 mg/kg BID, Day 4 and 7, compared to control mice
# LN229 = assay: pAkt pathway inhibition, LN229; type: cell-based; details: Homo sapiens, LN-229; LN229, Glioma
# [9] = system: pAkt in B Cell Malignancies; assay: pAkt activity, B cell malignancies; type: cell-based; details: N = 7
# Description: (§3) Cellular viability and pAkt activity were used to determine effects of Compounds A, C, and D in solid tumor, B-cell malignancies, and T-cell malignancies.
# IGROV-1 [10] = assay: pAkt pathway inhibition, IGROV-1; type: cell-based; details: Homo sapiens; IGROV-1, Ovarian
# pAkt in solid tumor = assay: pAkt activity, solid tumor; type: cell-based; details: N = 14
# Description: as §3
# LNCaP = assay: pAkt pathway inhibition, LNCaP; type: cell-based; details: Homo sapiens, Prostate
# VCaP = assay: pAkt pathway inhibition, VCaP; type: cell-based; details: Homo sapiens, Prostate
# PC3 [11] = assay: pAkt pathway inhibition, PC3; type: cell-based; details: Homo sapiens, PC-3; PC3, Prostate
# U138MG = assay: pAkt pathway inhibition, U138MG; type: cell-based; details: Homo sapiens, U138-MG, Glioma
# BT549 = assay: pAkt pathway inhibition, BT549; type: cell-based; details: Homo sapiens, BT-549; BT549, Breast
# B Cell Malignancies = assay: Cellular viability, B cell malignancies; type: cell-based; details: N = 7
# Description: as §3
# T1 sequence (Q8BTI9 whole entry): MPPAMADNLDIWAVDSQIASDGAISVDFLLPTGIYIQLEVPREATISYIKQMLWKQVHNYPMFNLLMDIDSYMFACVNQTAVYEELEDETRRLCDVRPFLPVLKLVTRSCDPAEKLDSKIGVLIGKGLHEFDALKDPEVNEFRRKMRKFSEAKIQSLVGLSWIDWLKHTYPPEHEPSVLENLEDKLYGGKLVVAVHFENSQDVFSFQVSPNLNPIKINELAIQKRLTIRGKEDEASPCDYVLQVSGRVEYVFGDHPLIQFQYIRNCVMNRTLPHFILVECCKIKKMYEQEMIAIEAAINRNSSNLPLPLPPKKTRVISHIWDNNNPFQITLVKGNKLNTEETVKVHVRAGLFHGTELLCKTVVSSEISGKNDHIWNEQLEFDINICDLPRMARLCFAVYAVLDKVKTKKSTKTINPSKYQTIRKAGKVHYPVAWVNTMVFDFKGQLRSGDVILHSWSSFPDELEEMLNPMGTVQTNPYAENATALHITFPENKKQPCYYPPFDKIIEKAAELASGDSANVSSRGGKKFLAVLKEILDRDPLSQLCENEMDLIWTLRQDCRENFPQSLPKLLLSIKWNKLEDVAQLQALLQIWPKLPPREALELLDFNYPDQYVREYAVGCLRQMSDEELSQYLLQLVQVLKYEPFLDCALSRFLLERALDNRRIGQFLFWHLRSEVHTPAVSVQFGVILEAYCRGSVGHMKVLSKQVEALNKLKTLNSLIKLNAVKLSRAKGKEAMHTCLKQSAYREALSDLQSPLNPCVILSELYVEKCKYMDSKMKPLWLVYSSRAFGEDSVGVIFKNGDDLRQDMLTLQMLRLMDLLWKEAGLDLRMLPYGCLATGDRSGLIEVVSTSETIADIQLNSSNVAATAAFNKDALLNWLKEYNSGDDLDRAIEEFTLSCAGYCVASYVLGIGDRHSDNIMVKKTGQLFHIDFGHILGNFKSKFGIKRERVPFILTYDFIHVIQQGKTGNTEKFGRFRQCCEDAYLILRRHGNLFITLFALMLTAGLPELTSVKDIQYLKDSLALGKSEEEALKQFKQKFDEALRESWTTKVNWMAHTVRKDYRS
# T1 sequence (P26450 whole entry partner): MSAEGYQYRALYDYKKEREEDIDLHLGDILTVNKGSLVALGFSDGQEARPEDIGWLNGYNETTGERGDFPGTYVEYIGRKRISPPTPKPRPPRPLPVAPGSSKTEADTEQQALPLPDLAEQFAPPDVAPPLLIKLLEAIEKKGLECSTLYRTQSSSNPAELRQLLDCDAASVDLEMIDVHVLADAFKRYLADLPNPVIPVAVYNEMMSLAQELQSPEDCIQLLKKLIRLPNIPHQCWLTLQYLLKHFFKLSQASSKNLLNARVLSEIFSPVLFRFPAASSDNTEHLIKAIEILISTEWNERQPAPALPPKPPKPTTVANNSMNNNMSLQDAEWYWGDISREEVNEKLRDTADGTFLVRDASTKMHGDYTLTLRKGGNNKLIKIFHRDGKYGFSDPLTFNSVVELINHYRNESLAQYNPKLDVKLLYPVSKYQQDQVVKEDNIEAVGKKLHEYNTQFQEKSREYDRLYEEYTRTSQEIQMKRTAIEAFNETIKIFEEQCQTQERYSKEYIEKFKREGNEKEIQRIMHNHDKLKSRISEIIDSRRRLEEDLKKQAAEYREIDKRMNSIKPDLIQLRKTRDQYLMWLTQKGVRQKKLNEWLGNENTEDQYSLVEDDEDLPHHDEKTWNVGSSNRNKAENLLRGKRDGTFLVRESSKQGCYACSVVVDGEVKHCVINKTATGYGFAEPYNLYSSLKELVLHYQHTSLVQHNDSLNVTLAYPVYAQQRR
compound,measurement,setting,value
"CC(Nc1ncnc2[nH]cnc12)c1nc2cccc(Cl)c2c(=O)n1-c1ccccc1 (centres unmarked) [Compound A, 2-(1-(9H-purin-6-ylamino)ethyl)-5-chloro-3-phenylquinazolin-4(3H)-one]",Akt/PKB phosphorylation,[1],inhibition
same,EC50,LN18,10 nM
same,GI50,PC3 [2],2400 nM
same,clearance,Dog PK; IV 1 mg/kg,6.08 mL/min/kg
same,Vd,"Dog PK; IV 1 mg/kg, read-out: Vz",0.891 L/kg
same,AUC,Dog PK; PO 1 mg/kg,4450 ng·h/mL
same,Cmax,Dog PK; PO 1 mg/kg,1040 ng/mL
same,Tmax,Dog PK; PO 1 mg/kg,2.3 h
same,GI50,22Rv1 [3],2300 nM
same,GI50,T47D [4],1700 nM
same,In vitro metabolism,[5],Stable in human liver microsomes
same,EC50,786-0,44 nM
same,AUC,Mouse PK,1500 ng·h/mL
same,Cmax,Mouse PK,1280 ng/mL
same,Tmax,Mouse PK,15 min
same,GI50,IGROV-1 [6],1300 nM
same,EC50,T47D [7],502 nM
same,GI50,U87MG,2500 nM
same,EC50,UACC-62,45 nM
same,GI50,OVCAR-3,850 nM
same,EC50,22Rv1 [8],250 nM
same,EC50,RXF-393,25 nM
same,EC50,PI3K p110β,~270 nM and 270 nM
same,EC50,KM-12,897 nM
same,luminescent signal,PTEN null T-ALL,significantly lower
same,EC50,LN229,10 nM
same,EC50,[9],184 nM
same,EC50,IGROV-1 [10],10 nM
same,EC50,pAkt in solid tumor,188 nM
same,EC50,LNCaP,34 nM
same,EC50,VCaP,1200 nM
same,EC50,PC3 [11],155 nM
same,EC50,U138MG,2290 nM
same,EC50,BT549,34 nM
same,EC50,B Cell Malignancies,420 nM
